Measured values as given in patent publication US8309556B2, “Use of compounds derived from pyrimidinetrione as acetyl cholinesterase inhibitors, compositions containing said derivatives, and the uses thereof” (priority 2005, dated 2012).
Where two headings read alike, the source gives them in different places.

What was measured:
[1] = target: T1, AChE1 activity of extracts of Culex pipiens larvae sensitive to propoxur (normal AChE) (Culex pipiens, UniProt Q86GC8); test: Inhibition of AChE1 activity in extracts of propoxur-sensitive mosquito larvae; type: biochemical
T1 construct: from tissue; host or cells: whole larvae of propoxur-sensitive Culex pipiens, Triton X100 homogenate supernatant
Protocol: (§1) The inhibitory properties of the compounds of the preceding table I are tested with regard to the AChE activity by either using a normal or G119S-mutated recombinant AChE or using extracts of larvae of mosquitoes which are sensitive (carrying normal AChE) or resistant (carrying G119S-mutated AChE) to organophosphorus compounds and carbamates.
(§2) The AChE activity is measured using the method described by Bourguet et al., Pest Biochem. Physiol., 1996, 55, 122-128, and which refers to the spectroscopic method described by Ellman G. L. et al. (Biochem. Pharmacol., 1961, 7, 88-95) using acetylthiocholine as substrate.
(§3) Larvae of Culex pipiens mosquitoes which are sensitive or resistant to propoxur are milled in 400 μl of 0.25M phosphate buffer comprising 1% Triton X100. The homogenates are centrifuged at 10 000 rpm for 3 minutes.
(§4) The effectiveness of the various compounds with regard to the resistant larvae, relative to the sensitive larvae, is estimated by the sensitive/resistant ratio.

[2] = target: T2, normal recombinant Culex pipiens AChE1 (Culex pipiens, UniProt Q86GC8); test: Inhibition of normal recombinant AChE1 (lysates of transfected Drosophile S2 cells, Ellman method); type: biochemical
T2 construct: made in house; host or cells: Drosophila S2 cells (crude lysate supernatant)
Protocol: as §1, §2
(§5) The inhibitory properties of the compounds according to the invention with regard to the activity of a G119S-mutated or normal recombinant Culex pipiens AChE1 are tested according to protocol described by Weill et al., Nature, 2003, 423, 136-137.
(§6) Each compound according to the invention is tested at different concentrations on lysates of Drosophile S2 cells transfected with an empty expression vector or an expression vector expressing normal or mutated AChE1. After expression, the cells are centrifuged for 15 minutes at 14 000 rpm and are subsequently lysed in a 0.25 M phosphate buffer comprising 1% Triton X100.
(§7) 100 μl of supernatant originating from the centrifuging of the cell lysates at 10 000 rpm for 3 minutes are incubated for 15 minutes with 10 μl of each compound according to the invention at various concentrations.
(§8) The effectiveness of the various compounds with regard to the mutated AChE activity, relative to that of the normal AChE, is estimated by the sensitive/insensitive ratio.

[3] = target: T3, AChE1 activity of extracts of Culex pipiens larvae resistant to propoxur (G119S-mutated AChE) (Culex pipiens, UniProt Q86GC8, G247S); test: biochemical
T3 construct: from tissue; host or cells: whole larvae of propoxur-resistant Culex pipiens, Triton X100 homogenate supernatant
Protocol: as §1, §2, §3, §4

[4] = system: AChE1 activity of extracts of Culex pipiens larvae resistant to propoxur (G119S-mutated AChE); test: biochemical; details: IC50 on larval extracts, sensitive relative to resistant
Protocol: as §1, §2, §3, §4

[5] = target: T4, G119S-mutated recombinant Culex pipiens AChE1 (Culex pipiens, UniProt Q86GC8, G247S); test: biochemical
T4 construct: made in house; host or cells: Drosophila S2 cells (crude lysate supernatant)
Protocol: as §1, §2, §5, §6, §7, §8

[6] = system: G119S-mutated recombinant Culex pipiens AChE1; test: biochemical; details: IC50 normal AChE1 relative to mutated AChE1, recombinant
Protocol: as §1, §2, §5, §6, §7, §8

[7] = system: larvae of mosquitoes Culex pipiens sensitive to propoxur; test: Insecticidal activity: larval mortality, propoxur-sensitive larvae; type: in vivo; details: stage-4 larvae, mortality after 24 hours, log-Probit, read-out: LD50, Sensitive larvae
Protocol: (§9) The insecticidal activity of the compounds according to the invention denoted in table IV below is tested on larvae of mosquitoes Culex pipiens sensitive or resistant to the action of propoxur.
(§10) The larvae resistant or sensitive to propoxur are incubated in 24-well plates, at the rate of 15 stage-4 larvae per well, in 1 ml of tap water comprising different concentrations of compounds ranging from 0.31 to 50 μg/ml.
(§11) Larval mortality is measured after incubating for 24 hours. […] Cahiers ORSTOM, série Entomologie médicale et Parasitologie, 23(2), 117-121; Raymond, M., Prato, G. and Ratsira, D. (1993). PROBIT, CNRS-UMII, Licence L93019. Avenix, 34680 St. Georges d'Orques, France.), the homogeneity of the dose/response being tested. The effectiveness of the different compounds with regard to the resistant larvae, relative to the sensitive larvae, is estimated by the sensitive/resistant ratio.

[8] = system: larvae of mosquitoes Culex pipiens resistant to propoxur; test: Insecticidal activity: larval mortality, propoxur-resistant larvae; type: in vivo; details: for LC50: Culex pipiens, stage-4 larvae, mortality after 24 hours, log-Probit, read-out: LD50, Resistant larvae; for Sensitive/resistant ratio: LD50 larval mortality, sensitive relative to resistant
Protocol: as §9, §10, §11

[9] = extracts of propoxur-sensitive larvae, 15 minutes incubation, read-out: IC50, Sensitive larvae

| SMILES | IC50 [1, 9] [µM] | IC50 [2] [µM] | IC50 [3] [µM] | Sensitive/resistant ratio [4] | IC50 [5] [µM] | Sensitive/insensitive ratio [6] | LC50 [7] [µM] | LC50 [8] [µM] | Sensitive/resistant ratio [8] | IC50 [1] [µM] |
| --- | --- | --- | --- | --- | --- | --- | --- | --- | --- | --- |
| Cc1ccc(C=C2C(=O)NC(=O)N(c3ccc(C)c(C)c3)C2=O)o1 [(17), 1-(3,4-dimethylphenyl)-5-[(5-methyl-2-furyl)methylene]-2,4,6(1H,3H,5H)-pyrimidinetrione] | 424 | 15.7 | 35 | 12.2 | 8.5 | 1.85 | – | – | – | – |
| C=CCN1C(=O)C(=Cc2ccc(C)o2)C(=O)NC1=S [(8), 1-allyl-5-[(5-methyl-2-furyl)methylene]-2-thioxodihydro-4,6(1H,5H)-pyrimidinetrione] | 91.6 | 61 | 51 | 1.8 | 29 | 2.08 | 223 | 123 | 1.8 | – |
| O=C1NC(=O)N(c2ccccc2)C(=O)C1=Cc1ccco1 [(9), 5-(2-furylmethylene)-1-phenyl-2,4,6(1H,3H,5H)-pyrimidinetrione] | – | 1390 | – | – | 737 | 1.89 | – | – | – | – |
| COc1cccc(N2C(=O)NC(=O)C(=Cc3ccc(C)o3)C2=O)c1 [(12), 1-(3-methoxyphenyl)-5-[(5-methyl-2-furyl)methylene]-2,4,6(1H,3H,5H)-pyrimidinetrione] | 54 | 3.4 | 6 | 8.5 | 3.5 | 0.96 | – | – | – | – |
| CNC(=O)Oc1ccccc1OC(C)C [Propoxur, propoxur, reference compound] | – | 9 | 31800 | 0.00015 | 6350 | 0.0014 | 1.7 | 2700 | 0.00063 | 4.9 |
| Cc1ccc(C=C2C(=O)NC(=O)N(c3ccccc3)C2=O)o1 [(1), 5-[(5-methyl-2-furyl)methylene]-1-phenyl-2,4,6(1H,3H,5H)-pyrimidinetrione] | 29.4 | 34 | 6.2 | 4.7 | 23 | 1.47 | 310 | 143 | 2.2 | – |
| COc1cccc(N2C(=O)NC(=O)C(=Cc3ccc(C)s3)C2=O)c1 [(3), 1-(3-methoxyphenyl)-5-[(5-methyl-2-thienyl)methylene]-2,4,6(1H,3H,5H)-pyrimidinetrione] | 118 | 102 | 33 | 3.5 | 62 | 1.65 | 389 | 122 | 3.2 | – |
| Cc1cccc(N2C(=O)NC(=O)C(=Cc3ccc(C)s3)C2=O)c1 [(2), 1-(3-methylphenyl)-5-[(5-methyl-2-thienyl)methylene]-2,4,6(1H,3H,5H)-pyrimidinetrione] | 442 | 39 | 28 | 15.5 | 43 | 0.90 | 455 | 170 | 2.7 | – |
| CCOc1ccc(N2C(=O)NC(=O)C(=Cc3ccc(C)o3)C2=O)cc1 [(13), 1-(4-ethoxyphenyl)-5-[(5-methyl-2-furyl)methylene]-2,4,6(1H,3H,5H)-pyrimidinetrione] | 236 | 7.1 | 89 | 2.7 | 2.9 | 2.40 | – | – | – | – |
| CN1C(=O)C(=Cc2ccco2)C(=O)N(C)C1=O [(10), 5-(2-furylmethylene)-1,3-dimethyl-2,4,6(1H,3H,5H)-pyrimidinetrione] | – | 1190 | – | – | 357 | 3.34 | – | – | – | – |
| Cc1ccc(N2C(=O)NC(=O)C(=Cc3ccc(C)o3)C2=O)cc1 [(11), 5-[(5-methyl-2-furyl)methylene]-1-(4-methylphenyl)-2,4,6(1H,3H,5H)-pyrimidinetrione] | 111 | 4.5 | 14 | 7.7 | 3.5 | 1.27 | – | – | – | – |
| Cc1ccc(C=C2C(=O)NC(=O)N(c3ccc(Br)cc3)C2=O)s1 [(14), 1-(4-bromophenyl)-5-[(5-methyl-2-thienyl)methylene]-2,4,6(1H,3H,5H)-pyrimidinetrione] | 2120 | 9.6 | 142 | 15.0 | 11.1 | 0.87 | – | – | – | – |
| Cc1ccc(C=C2C(=O)NC(=O)N(Cc3ccco3)C2=O)o1 [(18), 1-(2-furylmethyl)-5-[(5-methyl-2-furyl)methylene]-2,4,6(1H,3H,5H)-pyrimidinetrione] | 260 | 10.1 | 37 | 7.1 | 4.8 | 2.10 | – | – | – | – |
| CCc1ccc(N2C(=O)NC(=O)C(=Cc3ccc(C)o3)C2=O)cc1 [(19), 1-(4-ethylphenyl)-5-[(5-methyl-2-furyl)methylene]-2,4,6(1H,3H,5H)-pyrimidinetrione] | 312 | 1.9 | 19 | 16.7 | 3.4 | 0.58 | – | – | – | – |
| Cc1ccc(C=C2C(=O)NC(=O)N(c3ccc(Cl)cc3)C2=O)s1 [(15), 1-(4-chlorophenyl)-5-[(5-methyl-2-thienyl)methylene]-2,4,6(1H,3H,5H)-pyrimidinetrione] | 1220 | 8.7 | 177 | 6.9 | 8.7 | 1.00 | – | – | – | – |
| Cc1ccc(C=C2C(=O)NC(=O)N(c3ccc(C(C)C)cc3)C2=O)o1 [(7), 1-(4-isopropylphenyl)-5-[(5-methyl-2-furyl)methylene]-2,4,6(1H,3H,5H)-pyrimidinetrione] | 132 | 128 | 21 | 6.1 | 72 | 1.78 | – | – | – | – |
| Cc1ccc(C=C2C(=O)NC(=O)N(c3ccc(F)cc3)C2=O)s1 [(16), 1-(4-fluorophenyl)-5-[(5-methyl-2-thienyl)methylene]-2,4,6(1H,3H,5H)-pyrimidinetrione] | 490 | 17.1 | 22 | 22.5 | 8.6 | 1.99 | – | – | – | – |
| CCCCN1C(=O)NC(=O)C(=Cc2ccc(C)s2)C1=O [(20), 1-butyl-5-[(5-methyl-2-thienyl)methylene]-2,4,6(1H,3H,5H)-pyrimidinetrione] | 153 | 12.1 | 152 | 1.0 | 15.5 | 0.78 | – | – | – | – |
